Ends that are not written are not given here.
Legend:
Format in all cases: cell-based, human
T-cells = test: PBMC culture pulsed with long polypeptide, restimulation, intracellular cytokine (IFNγ) assay, healthy donors; design: key to Testing (confirmed immunogenicity in healthy donors): *: Represents polypeptides confirmed to be immunogenic in 4/4 healthy donors.; ¶: Represents polypeptides confirmed to be immunogenic in one healthy donor; details: for immunogenicity (frequency of antigen-specific T-cells): FIGS. 4C and 4D, unvaccinated HLA-A2.1+ healthy volunteers; for immune response by antigen specific IFNγ production: FIGS. 4C and D, CD4+ and CD8+ T cells, four healthy donors, background subtracted
Method: The SEA polypeptides, CMV long polypeptide, and VNTR polypeptide were tested in a culture system. Briefly, bulk peripheral blood mononuclear cells (PBMC) were thawed and exposed to GM-CSF on day 0 in culture. […] On day 2, media was washed out, and the cells were split 1:6 in fresh media containing IL-7 for T-cell expansion. Further splits occurred with simple addition of more media containing IL-7 depending upon acidity of the media between days 7-15. On day 16, an antigen specific restimulation of T-cell cultures was performed utilizing fresh PBMC as the antigen presenting cells. These fresh PBMC were thawed on day 14 and treated the same way as the initial culture on days 0-1, before being used on day 16. At the time of restimulation, an intracellular cytokine assay was performed. The T-cell cultures also were allowed to proliferate for an additional […] in media containing IL-7. At the end of culture, day 28, T-cells were further tested with a new intracellular cytokine assay utilizing fresh PBMC, prepared the same way as the PBMC used on day 16 for the first intracellular cytokine assay. Representative dot-plots for IFNγ levels are shown for the CMV pp65 polypeptide and the SEA2 polypeptide, with levels being much lower when T-cells were not restimulated with the same polypeptide they saw at the initiation of culture. […] Each data point represents the level of IFNγ after subtracting the levels of IFNγ from restimulation with irrelevant polypeptides or no polypeptide from levels when T-cells were restimulated with the original polypeptide.
The synthesized long peptides were individually pulsed onto GM+R848+LPS conditioned PBMC cultures established from unvaccinated HLA-A2.1+ healthy volunteers, then expanded in rhIL-7 or rhIL-7+rhIL-2. […] Proliferation of CD4+ and CD8^+ T-cells was indistinguishable, with both subsets retaining their initial proportionality during expansion.

MDA-MB-231.MUC1 = test: Cr51 release lysis by peptide-driven T-cells; details: T-cells from 3 donors; FIG. 6
From the text: T-cells from GM+R848+LPS conditioned PBMC driven by either SEA2 or SEA1 long peptides not only specifically recognized one or both of these sensitizing peptides at restimulation, but also preferentially lysed the HLA-A2.1+ human breast cancer line MDA-MB-231 transduced to express MUC1 (MDA-MB-231.MUC1) compared to MDA-MB-231.Neo control targets. […] Polyclonally driven T-cells from all 3 donors lysed MDA-MB-231.MUC1 indistinguishably from MDA-MB-231.Neo.

SEA1-specific T-cells = test: Effect of C-terminal amidation on sensitizing Ag-specific IFNγ T cells; details: FIG. 9; one healthy donor; versus SEA1 without C-terminal amidation
From the text: Amidated polypeptides were amidated at the C-terminus as described elsewhere (see, e.g., Brinckerhoff et al., Int. J. Cancer 83 (3): 326-34 (1999)).
A cocktail of peptides such as SEA1, SEA1-amide, acetyl-SEA1 and acetyl-SEA1-amide can be used to capture a broadened SEA1 response (or similarly for any other peptide).

Row | Substance | Testing (confirmed immunogenicity in healthy donors) (T-cells) | further results
1 | 3 (NRPALGSTAPPVHNVTSASGSASGSASTLV; immunogenic polypeptide) [compound 3] | */MUC1 | 
2 | 5 (STSPQLSTGVSFFFLSFHISNLQFNSSLEDPSTD; immunogenic polypeptide) [compound 5] | */MUC1 | 
3 | 6 (STDYYQELQRDISEMFLQIYKQGGFLGLSNIKFRPGSVV; immunogenic polypeptide) [compound 6] | */MUC1 | 
4 | 7 (VHDVETQFNQYKTEAASRYNLTISDVSVSDVPFP; immunogenic polypeptide) [compound 7] | */MUC1 | 
5 | 11 (LSFLQDIQEVQGYVLIAHNQVRQVPLQRL; immunogenic polypeptide) [compound 11] | ¶/HER2 | 
6 | 12 (AHNQVRQVPLQRLRIVRGTQLFEDNYALA; immunogenic polypeptide) [compound 12] | ¶/HER2 | 
7 | 13 (TEILKGGVLIQRNPQLCYQDTILWKDIFH; immunogenic polypeptide) [compound 13] | ¶/HER2 | 
8 | 14 (YQDTILWKDIFHKNNQLALTLIDTNRSRACHPC; immunogenic polypeptide) [compound 14] | ¶/HER2 | 
9 | 16 (NIQEFAGCKKIFGSLAFLPESFDGDP; immunogenic polypeptide) [compound 16] | ¶/HER2 | 
10 | 17 (VFETLEEITGYLYISAWPDSLPDLSV; immunogenic polypeptide) [compound 17] | ¶/HER2 | 
11 | 18 (DLSVFQNLQVIRGRILHNGAYSLTLQGLG; immunogenic polypeptide) [compound 18] | ¶/HER2 | 
12 | 20 (ELGSGLALIHHNTHLCFVHTVPW; immunogenic polypeptide) [compound 20] | ¶/HER2 | 
13 | 24 (IKRRQQKIRKYTMRRLLQETELVEPLTPS; immunogenic polypeptide) [compound 24] | ¶/HER2 | 
14 | 26 (GVGSPYVSRLLGICLTSTVQLVTQLM; immunogenic polypeptide) [compound 26] | ¶/HER2 | 
15 | 29 (DLAARNVLVKSPNHVKITDFG; immunogenic polypeptide) [compound 29] | ¶/HER2 | 
16 | 30 (DGGKVPIKWMALESILRRRFTHQS; immunogenic polypeptide) [compound 30] | ¶/HER2 | 
17 | 33 (SECRPRFRELVSEFSRMARDPQRFVVIQ; immunogenic polypeptide) [compound 33] | ¶/HER2 | 
18 | 57 (GVGSPYVSRLLGICLTSTVQLV; immunogenic polypeptide) [compound 57] | ¶/HER2 | 
19 | AHGVTSAPDTRPAPGSTAPPAHGV [VNTR, reference compound] |  | immunogenicity (frequency of antigen-specific T-cells) (T-cells): reproducibly less effective
20 | SPQLSTGVSFFFLSFHISNLQFNSSLEDPSTD [SEA1] |  | lysis of MDA-MB-231.MUC1 compared to MDA-MB-231.Neo control targets (MDA-MB-231.MUC1): significantly more; immunogenicity (frequency of antigen-specific T-cells) (T-cells): highly immunogenic; immune response by antigen specific IFNγ production (T-cells): consistently exhibited an immune response
21 | SPQLSTGVSFFFLSFHISNLQFNSSLEDPSTD-amide (SPQLSTGVSFFFLSFHISNLQFNSSLEDPSTD-NH2) [SEA1-amide, SEA1 amidated at the C-terminus] |  | SEA1-specific CD8+ T-cell response (SEA1-specific T-cells): less affected by amidation; sensitizing SEA1-specific CD4+ IFNγ-producing T-cells (SEA1-specific T-cells): far superior
22 | SQEPMSIYVYALPLKMLNIPSINVHHYP [SEQ ID NO: 1] |  | immunogenicity (frequency of antigen-specific T-cells) (T-cells): highly immunogenic; immune response by antigen specific IFNγ production (T-cells): consistently exhibited an immune response
23 | STDYYQELQRDISEMFLQIYKQGGFLGLSNIKFRPGSVV [SEA2] |  | lysis of MDA-MB-231.MUC1 compared to MDA-MB-231.Neo control targets (MDA-MB-231.MUC1): significantly more; immunogenicity (frequency of antigen-specific T-cells) (T-cells): highly immunogenic; immune response by antigen specific IFNγ production (T-cells): consistently exhibited an immune response
